From patent US20160313301A1, “METHOD FOR PREDICTING ANTITUMOR EFFICACY OF HSP90 INHIBITOR IN CANCER TREATMENT” (NIPPON KAYAKU KABUSHIKI KAISHA, priority 2013, published 2016)

Experiments:
Assay type in all cases: in vivo
[1] = system: human ovarian cancer cells TOGY-18; assay: Anti-tumor test in mice transplanted subcutaneously with tumor (TOGY-18); conditions: TOGY-18 s.c. in mice; 125 mg/kg tail vein three times at 7 day intervals
Procedure: (§1) Human ovarian cancer cell lines OC-10-JCK, OC-11-JCK, and TOGY-18, and a human breast cancer cell line MC-19-JCK were obtained from Central Institute for Experimental Animals. Cryopreserved tumor pieces were thawed, and then OC-10-JCK, OC-11-JCK, and MC-19-JCK were transplanted subcutaneously to SCID mice, while TOGY-18 was transplanted subcutaneously to nude mice. After the tumors were grown, the tumors were removed and cut into tumor pieces. The tumor pieces were transplanted subcutaneously to SCID mice or nude mice with trocars. The tumors were maintained by repeated transplantation in the same manner as described above to prepare tumors to be transplanted. Human ovarian cancer cell lines ES-2, SK-OV-3, OV-90, and TOV-21G, and a human lung cancer cell line NCI-H1975 were obtained from American Type Culture Collection (ATCC). The SK-OV-3 and NCI-H1975 cell lines were grown in recommended culture media, of which about 1×10^7 cells were suspended into HBSS and then injected subcutaneously to SCID mice. After the cells formed tumors, the tumors were removed and cut into tumor pieces. The tumor pieces were transplanted subcutaneously to SCID mice with trocars. The tumors were maintained by repeated transplantation in the same manner as described above to prepare tumors to be transplanted. […]

[2] = system: human ovarian cancer cells OC-11-JCK/PTX; assay: Anti-tumor test in mice transplanted subcutaneously with tumor (OC-11-JCK/PTX); conditions: OC-11-JCK/PTX s.c. in mice; 125 mg/kg tail vein three times at 7 day intervals
Procedure: Human ovarian cancer cell lines OC-10-JCK, OC-11-JCK, and TOGY-18, and a human breast cancer cell line MC-19-JCK were obtained from Central Institute for Experimental Animals. Cryopreserved tumor pieces were thawed, and then OC-10-JCK, OC-11-JCK, and MC-19-JCK were transplanted subcutaneously to SCID mice, while TOGY-18 was transplanted subcutaneously to nude mice. After the tumors were grown, the tumors were removed and cut into tumor pieces. The tumor pieces were transplanted subcutaneously to SCID mice or nude mice with trocars. The tumors were maintained by repeated transplantation in the same manner as described above to prepare tumors to be transplanted. Human ovarian cancer cell lines ES-2, SK-OV-3, OV-90, and TOV-21G, and a human lung cancer cell line NCI-H1975 were obtained from American Type Culture Collection (ATCC). The SK-OV-3 and NCI-H1975 cell lines were grown in recommended culture media, of which about 1×10^7 cells were suspended into HBSS and then injected subcutaneously to SCID mice. After the cells formed tumors, the tumors were removed and cut into tumor pieces. The tumor pieces were transplanted subcutaneously to SCID mice with trocars. The tumors were maintained by repeated transplantation in the same manner as described above to prepare tumors to be transplanted. The OV-90 cell line was grown in a recommended culture medium, of which about 1×10^6 cells were suspended into HBSS and then injected subcutaneously to SCID mice. After the cells formed a tumor, the tumor was subjected to an anti-tumor test. The TOV-21G cell line was grown in a recommended culture medium, of which about 1×10^7 cells were suspended into HBSS and then injected subcutaneously to SCID mice. After the cells formed a tumor, the tumor was subjected to the anti-tumor test. The ES-2 cell line was grown in a recommended culture medium, suspended into HBSS, and then injected subcutaneously to nude mice. After the cells formed a tumor, the tumor was removed and cut into tumor pieces. The tumor pieces were transplanted subcutaneously to nude mice with a trocar. […]

[3] = system: human lung cancer cells NCI-H1975; assay: Anti-tumor test in mice transplanted subcutaneously with tumor (NCI-H1975); conditions: NCI-H1975 s.c. in mice; 150 mg/kg tail vein three times at 7 day intervals
Procedure: as §1

[4] = system: human breast cancer cells MC-19-JCK; assay: Anti-tumor test in mice transplanted subcutaneously with tumor (MC-19-JCK); conditions: MC-19-JCK s.c. in mice; administered once at 125 mg/kg
Procedure: as §1

[5] = system: human breast cancer cells JIMT-1; assay: Anti-tumor test in mice transplanted subcutaneously with tumor (JIMT-1); conditions: JIMT-1 s.c. in mice; 125 mg/kg tail vein three times at 7 day intervals
Procedure: as §1

CC(C)c1cc(-c2n[nH]c(=O)n2-c2ccc3c(ccn3C)c2)c(O)cc1O [Ganetespib, reference compound]
T/C % (lowest value from the beginning to the 21st day of administration) [1]: 67.7% | T/C % (lowest value from the beginning to the 21st day of administration) [2]: 84.0% | T/C % (lowest value from the beginning to the 21st day of administration) [3]: 44.0% | T/C % (lowest value from the beginning to the 21st day of administration) [4]: 19.8% | T/C % (lowest value from the beginning to the 21st day of administration) [5]: 56.6%
